Where “and” joins values, the source holds several entries; their conditions need not be identical. Equal values may be shown once. Read-outs that look alike come from different tables or passages of the source.
Columns and labels:
Assay in all cases: GloSensor cAMP assay, antagonism of PGE2-induced cAMP
Type in all cases: cell-based
EP4 V320A = target: T1, EP4 V320A (Homo sapiens, UniProt P35408, V320A); details: for cAMP activity (∆pIC50 from EP4 WT): TG6-129, V320A
T1 construct: The full-length EP2 or EP4 was cloned into the pcDNA3.1 vector (Invitrogen), incorporating an N-terminal FLAG tag; expressed in transfected cells; host or cells: AD293

EP2 T82A = target: T2, EP2 T82A (Homo sapiens, UniProt P43116, T82A); details: for cAMP activity (∆pIC50 from EP2 WT): TG6-129, T82A
T2 construct: The full-length EP2 or EP4 was cloned into the pcDNA3.1 vector; FLAG (N); expressed in transfected cells; host or cells: AD293 cells
Procedure, shortened: (§1)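 Read-out is GloSensor luminescence from AD293 cells co-expressing FLAG-tagged EP2 variant and GloSensor22F biosensor, transfected at a 1:1 plasmid ratio. Cells were plated at 4000 per well in CO2-independent medium containing 2% cAMP reagent, incubated 1 h at 37 °C, then read.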

EP4 S319A = target: T3, EP4 S319A (Homo sapiens, UniProt P35408, S319A); details: for cAMP activity (∆pIC50 from EP4 WT): TG6-129, S319A
T3 construct: The full-length EP2 or EP4 was cloned into the pcDNA3.1 vector (Invitrogen), incorporating an N-terminal FLAG tag; expressed in transfected cells; host or cells: AD293

EP2 S308A = target: T4, EP2 S308A (Homo sapiens, UniProt P43116, S308A); details: for cAMP activity (∆pIC50 from EP2 WT): TG6-129, S308A
T4 construct: The full-length EP2 or EP4 was cloned into the pcDNA3.1 vector; FLAG (N); expressed in transfected cells; host or cells: AD293 cells
Procedure, shortened: as §1

EP2 W186A = target: T5, EP2 W186A (Homo sapiens, UniProt P43116, W186A)
T5 construct: The full-length EP2 or EP4 was cloned into the pcDNA3.1 vector; FLAG (N); expressed in transfected cells; host or cells: AD293 cells
Procedure, shortened: as §1

EP2 S305A = target: T6, EP2 S305A (Homo sapiens, UniProt P43116, S305A); details: for cAMP activity (∆pIC50 from EP2 WT): TG6-129, S305A
T6 construct: The full-length EP2 or EP4 was cloned into the pcDNA3.1 vector; FLAG (N); expressed in transfected cells; host or cells: AD293 cells
Procedure, shortened: as §1

[1] = 1 h, TG6-129 log([M]) -6.10, read-out: % cAMP activity (normalized to WT)
[2] = 1 h, TG6-129 log([M]) -6.80, read-out: % cAMP activity (normalized to WT)
[3] = 1 h, TG6-129 log([M]) -7.49, read-out: % cAMP activity (normalized to WT)
[4] = 1 h, TG6-129 log([M]) -8.19, read-out: % cAMP activity (normalized to WT)
[5] = 1 h, TG6-129 log([M]) -8.89, read-out: % cAMP activity (normalized to WT)
[6] = 1 h, TG6-129 log([M]) -8, read-out: % cAMP activity (normalized to WT)
[7] = 1 h, TG6-129 log([M]) -9, read-out: % cAMP activity (normalized to WT)
[8] = 1 h, TG6-129 log([M]) -11, read-out: % cAMP activity (normalized to WT)
[9] = 1 h, TG6-129 log([M]) -12, read-out: % cAMP activity (normalized to WT)
[10] = 1 h, TG6-129 log([M]) -7, read-out: % cAMP activity (normalized to WT)
[11] = 1 h, TG6-129 log([M]) -10, read-out: % cAMP activity (normalized to WT)
[12] = 1 h, TG6-129 log([M]) -6, read-out: % cAMP activity (normalized to WT)

T2 sequence (P43116 whole entry T82A): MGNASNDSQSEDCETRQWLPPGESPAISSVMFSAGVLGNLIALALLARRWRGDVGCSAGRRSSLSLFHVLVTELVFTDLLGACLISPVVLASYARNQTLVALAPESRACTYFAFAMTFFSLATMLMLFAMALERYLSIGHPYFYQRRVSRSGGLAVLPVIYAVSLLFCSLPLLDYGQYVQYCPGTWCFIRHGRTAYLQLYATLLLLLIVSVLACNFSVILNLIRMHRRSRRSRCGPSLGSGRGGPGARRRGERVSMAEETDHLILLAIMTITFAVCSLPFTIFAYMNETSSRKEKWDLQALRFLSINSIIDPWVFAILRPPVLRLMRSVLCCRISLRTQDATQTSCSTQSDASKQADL
T5 sequence (P43116 whole entry W186A): as the sequence (P43116 whole entry T82A) above, with A82T, W186A counted along it
T4 sequence (P43116 whole entry S308A): as the sequence (P43116 whole entry T82A) above, with A82T, S308A counted along it
T6 sequence (P43116 whole entry S305A): as the sequence (P43116 whole entry T82A) above, with A82T, S305A counted along it
T3 sequence (P35408 whole entry S319A): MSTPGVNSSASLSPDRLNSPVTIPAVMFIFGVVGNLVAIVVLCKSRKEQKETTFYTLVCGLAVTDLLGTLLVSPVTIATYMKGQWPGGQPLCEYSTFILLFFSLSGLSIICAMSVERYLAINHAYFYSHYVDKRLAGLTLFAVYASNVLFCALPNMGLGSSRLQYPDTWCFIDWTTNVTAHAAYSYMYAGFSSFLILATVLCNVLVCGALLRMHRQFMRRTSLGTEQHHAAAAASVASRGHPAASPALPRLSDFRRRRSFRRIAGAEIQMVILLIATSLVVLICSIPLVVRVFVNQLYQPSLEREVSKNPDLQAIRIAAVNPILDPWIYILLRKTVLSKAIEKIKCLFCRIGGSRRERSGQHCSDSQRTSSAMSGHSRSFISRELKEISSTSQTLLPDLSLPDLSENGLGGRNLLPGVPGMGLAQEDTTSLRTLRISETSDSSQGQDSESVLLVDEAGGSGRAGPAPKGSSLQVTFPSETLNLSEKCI
T1 sequence (P35408 whole entry V320A): as the sequence (P35408 whole entry S319A) above, with A319S, V320A counted along it

## CCc1nnc(NS(=O)(=O)c2ccc(NC(=S)NC(=O)/C=C/c3ccc(F)cc3)cc2)s1 [TG6-129]
EP4 V320A; [1]
  remaining activity at […]: 66.9%
EP4 V320A; [2]
  remaining activity at 0.1585 µM: 68%
EP4 V320A; [3]
  remaining activity at 0.03236 µM: 66.5%
EP4 V320A; [4]
  remaining activity at 0.006457 µM: 70.4%
EP4 V320A; [5]
  remaining activity at 0.001288 µM: 68.8%
EP4 V320A; PGE2 0.5 nM, pIC50 mutant - pIC50 WT, mean
  ΔpIC50: -0.11 ± 0.05
EP4 V320A; Mean
  cAMP activity (∆pIC50 from EP4 WT): -0.111
EP4 V320A; single experiments 1st-3rd
  cAMP activity (∆pIC50 from EP4 WT): -0.105 and -0.202 and -0.027
EP2 T82A
  IC50: 74.1 nM
EP2 T82A; [6]
  remaining activity at 0.01 µM: 28.8%
EP2 T82A; [7]
  remaining activity at 0.001 µM: 38.9%
EP2 T82A; [8]
  remaining activity at 10 pM: 40.1%
EP2 T82A; [9]
  remaining activity at 1 pM: 33.8%
EP2 T82A; Mean
  cAMP activity (∆pIC50 from EP2 WT): -0.177
EP2 T82A; single experiments 1st-3rd
  cAMP activity (∆pIC50 from EP2 WT): -0.228 and -0.186 and -0.118
EP4 S319A
  IC50: 20000 nM
EP4 S319A; 1 h, TG6-129 log([M]) -4.00, read-out: % cAMP activity (normalized to WT)
  remaining activity at 100 µM: 15.3%
EP4 S319A; 1 h, TG6-129 log([M]) -4.70, read-out: % cAMP activity (normalized to WT)
  remaining activity at […]: 26.4%
EP4 S319A; 1 h, TG6-129 log([M]) -5.40, read-out: % cAMP activity (normalized to WT)
  remaining activity at […]: 52.2%
EP4 S319A; [1]
  remaining activity at […]: 50.8%
EP4 S319A; [2]
  remaining activity at 0.1585 µM: 53.5%
EP4 S319A; [3]
  remaining activity at 0.03236 µM: 57.1%
EP4 S319A; [4]
  remaining activity at 0.006457 µM: 56.3%
EP4 S319A; [5]
  remaining activity at 0.001288 µM: 49.4%
EP4 S319A; Mean
  cAMP activity (∆pIC50 from EP4 WT): -0.299
EP4 S319A; single experiments 1st-3rd
  cAMP activity (∆pIC50 from EP4 WT): -0.429 and -0.317 and -0.151
EP2 S308A
  IC50: 209 nM
EP2 S308A; [10]
  remaining activity at 0.1 µM: 80.3%
EP2 S308A; [11]
  remaining activity at 0.0001 µM: 108%
EP2 S308A; [8]
  remaining activity at 10 pM: 110%
EP2 S308A; Mean
  cAMP activity (∆pIC50 from EP2 WT): -0.534
EP2 S308A; single experiments 1st-3rd
  cAMP activity (∆pIC50 from EP2 WT): -0.496 and -0.568 and -0.537
EP2 W186A
  IC50: 2000 nM
EP2 W186A; [12]
  remaining activity at 1 µM: 12.3%
EP2 W186A; [10]
  remaining activity at 0.1 µM: 14.9%
EP2 W186A; [6]
  remaining activity at 0.01 µM: 13.9%
EP2 W186A; [7]
  remaining activity at 0.001 µM: 12.1%
EP2 W186A; [11]
  remaining activity at 0.0001 µM: 12.9%
EP2 W186A; [8]
  remaining activity at 10 pM: 15.2%
EP2 W186A; [9]
  remaining activity at 1 pM: 12.4%
EP2 W186A; TG6-129, W186A, Mean
  cAMP activity (∆pIC50 from EP2 WT): -1.790
EP2 S305A
  IC50: 28.8 nM
EP2 S305A; [12]
  remaining activity at 1 µM: 9.02%
EP2 S305A; [10]
  remaining activity at 0.1 µM: 12.5%
EP2 S305A; [7]
  remaining activity at 0.001 µM: 44.8%
EP2 S305A; [8]
  remaining activity at 10 pM: 67.8%
EP2 S305A; [9]
  remaining activity at 1 pM: 54.8%
EP2 S305A; Mean
  cAMP activity (∆pIC50 from EP2 WT): 0.475
EP2 S305A; single experiments 1st-3rd
  cAMP activity (∆pIC50 from EP2 WT): 0.478 and 0.360 and 0.586

Reference: publication PMC12669672, “Structural insights into selective and dual antagonism of EP2 and EP4 prostaglandin receptors” (The EMBO Journal, 2025)
